Consider 1 molecule from US20250049741A1, “COMPOSITION FOR PREVENTING OR TREATING ALZHEIMER'S DISEASE COMPRISING PHOSPHOLIPASE C ACTIVATOR AS AN ACTIVE INGREDIENT” (Korea University Research and Business Foundation, priority 2021, published 2025).

The test system of one experiment is PLCβ1. Briefly: Western blot of PLCβ1 in rat hippocampal slices. In kind it is cell-based, Sprague-Dawley rats. To be noted: AβO+m-3M3FBS-treated rat hippocampal slices; similar to DMSO-treated slices. The method, then:
Soluble AβO was prepared according to a previous study (BMC Biol. 2020; 18(1):7). Specifically, Aβ1-42 (Aβ) and a scrambled form of Aβ as a control peptide were purchased in powder form. Aβ and scrambled Aβ were dissolved for monomerization in 1,1,1,3,3,3-hexafluoro-2-propanol (HFIP, Sigma Aldrich, USA) at a final concentration of 1 mM, and the solution was incubated for 90 minutes. After the HFIP was evaporated, the remaining thin and clear film of Aβ or scrambled Aβ was dissolved in dimethyl sulfoxide (DMSO, Sigma Aldrich, USA) to prepare 5 mM Aβ or scrambled Aβ stocks, which were aliquoted and frozen at −20° C. Aβ or scrambled Aβ stocks were thawed and diluted to 100 μM in artificial cerebrospinal fluid (ACSF). Thereafter, Aβ or scrambled Aβ stocks were incubated for oligomerization for 18 hours. […]
Hippocampal PLCβ1 of SD rats and C57BL/6 or 5XFAD mice were prepared from homogenized hippocampi dissolved in 200 μL of RIPA buffer (Bio-Rad, USA), and were resolved on non-reducing 10% tris-glycine-sodium dodecyl sulfate-polyacrylamide gel electrophoresis (SDS-PAGE) gels (Bio-Rad, USA) using 4×Laemmli sample buffers (Bio-Rad, USA). […] Immunoreactivity was confirmed with enhanced chemiluminescence (Bio-Rad, USA) using a Fluorchem E system (ProteinSimple, USA) and analyzed with ImageJ software. […]
A general note: A western blot detects proteins with antibodies after separation by electrophoresis.

The subject of experiment [1] is CA1 PCs in rat hippocampal slices. Briefly: Ex vivo eCB / S-eCB mobilization protocol: eIPSC amplitudes by whole-cell voltage-clamp. In kind it is cell-based, Sprague-Dawley rats. To be noted: m-3M3FBS 30 μM. From the text: To test the acute effect of AβO on hippocampal S-eCB mobilization, hippocampal slices from Sprague-Dawley rats (SD, 2 to 3 weeks old, DaeHan Biolink, Co., Ltd., Korea) were used. Male and female rats were used in all in vitro experiments. To test the chronic effect of AβO on hippocampus-dependent memory impairments caused by amyloidosis, the 5XFAD mouse model (6 to 7 months old, #34840-JAX, Jackson Laboratory, USA), which is a mouse model of Alzheimer's disease that mimics AβO depositions, was used. C57BL/6 mice (6 to 7 months old, KOATECH, Korea) were used as wild type (WT) control mice for 5XFAD mice. Male 5XFAD and C57BL/6 mice were used for all in vivo behavioral experiments. The 5XFAD mouse genotypes were identified by polymerase chain reaction (PCR) using DNA extracted from the tails of the mice. All animal-related procedures followed the guidelines of the Institutional Animal Care and Use Committee of Korea University (guidelines for SD rats: KUIACUC-2017-103, guidelines for C57BL/6 and 5XFAD mice: KUIACUC-2019-0068).
Soluble AβO was prepared according to a previous study (BMC Biol. 2020; 18(1):7). Specifically, Aβ1-42 (Aβ) and a scrambled form of Aβ as a control peptide were purchased in powder form. Aβ and scrambled Aβ were dissolved for monomerization in 1,1,1,3,3,3-hexafluoro-2-propanol (HFIP, Sigma Aldrich, USA) at a final concentration of 1 mM, and the solution was incubated for 90 minutes. After the HFIP was evaporated, the remaining thin and clear film of Aβ or scrambled Aβ was dissolved in dimethyl sulfoxide (DMSO, Sigma Aldrich, USA) to prepare 5 mM Aβ or scrambled Aβ stocks, which were aliquoted and frozen at −20° C. Aβ or scrambled Aβ stocks were thawed and diluted to 100 μM in artificial cerebrospinal fluid (ACSF). Thereafter, Aβ or scrambled Aβ stocks were incubated for oligomerization for 18 hours. The final AβO or scrambled AβO stock solution was diluted to a final concentration of 200 nM in 31.2 ml of ACSF, and rat hippocampal slices were treated with the stock solution for 20 minutes in a recovery chamber before measurement of brain signals. In control experiments for normal brain conditions using a vehicle, rat hippocampal slices were treated with 0.004% DMSO in ACSF.
The brains of SD rats were isolated following decapitation under isoflurane-induced anesthesia and transferred into ice-cold ACSF containing 126 mM NaCl, […], 1.25 mM NaH2PO4, 2 mM MgSO4, 2 mM CaCl2), 25 mM NaHCO3, and 10 mM glucose (pH 7.2 to 7.4). The ACSF was continuously oxygenated with 95% O2/5% CO2. Horizontal hippocampal slices (350 μm thickness) were obtained using a vibratome (VT1000S, Leica Biosystems, Germany) and immediately incubated at room temperature in a submerged chamber perfused with oxygenated ACSF for at least 1 hour.
To quantify eCB mobilization, the changes in eCB mobilization-induced Schaffer collateral (SC) nerve bundle stimulation-evoked inhibitory postsynaptic current (eIPSC) amplitudes were measured in CA1 PCs through the whole-cell voltage-clamp technique. The whole-cell voltage-clamp technique in CA1 PCs was performed using a MultiClamp 700B amplifier (Molecular Devices, USA) under an infrared differential interference contrast video microscope (BW51W, Olympus, Japan), using a borosilicate electrode (tip resistance: 4 to 8 MΩ) that was filled with an intracellular solution containing 145 mM CsCl, 10 mM HEPES, 2 mM EGTA, 4 mM QX-314, 4 mM Mg-ATP, 0.4 mM […], pH 7.2 to 7.3, and 270 to 280 mOsm/L. To record eIPSCs in the CA1 PCs, a stimulating electrode (A-M Systems, USA) was placed in a stratum radiatum to stimulate the SC pathway that carries CA3 PC axons. Electrical stimulation pulses of 200 to 400 μA amplitudes (20 to 40 μs) were generated using a constant current stimulator (model DS3, Digitimer Ltd., UK). eIPSCs were recorded in CA PCs every 1 second while maintaining the membrane potential at −70 mV.

`Cc1cc(C)c(S(=O)(=O)Nc2cccc(C(F)(F)F)c2)c(C)c1` [m-3M3FBS]: the “PLCβ1 protein levels in AβO-treated slices” value with PLCβ1 is recorded as “completely restored”. Also, in experiment [1] (AβO-treated rat hippocampal slices), the “synergistic enhancement of the suppression of eIPSC amplitudes (S-eCB mobilization) in AβO-treated slices” value is on record as “completely recovered”. Moreover, the “suppression of eIPSC amplitudes, recordings in DMSO-treated and scrambled AβO-treated slices” value in experiment [1] (DMSO-treated and scrambled AβO-treated rat hippocampal slices) was “not significantly different”.
